Experiment: refractive index (Na D-line) (dimensionless); xn = mol fraction of the nth substance listed
Conditions: 100 kPa, Liquid, Standard Abbe refractometry

NC(CO)C(=O)[O-].[Na+] (stereo not drawn) [sodium DL-serine] + O
refractive index
Conditions | 303.15 K | 308.15 K | 313.15 K | 318.15 K | 323.15 K | 328.15 K | 333.15 K | 338.15 K | 343.15 K
x1 = 0.009 | 1.34216 | 1.34144 | 1.34066 | 1.33982 | 1.33894 | 1.33802 | 1.33706 | 1.33608 | 1.33505
x1 = 0.018 | 1.35202 | 1.35122 | 1.35038 | 1.3495 | 1.34861 | 1.34767 | 1.34667 | 1.34565 | 1.34458
x1 = 0.028 | 1.36168 | 1.36085 | 1.36 | 1.35908 | 1.35806 | 1.35706 | 1.35612 | 1.35511 | 1.35407
x1 = 0.037 | 1.37103 | 1.37015 | 1.36925 | 1.3683 | 1.36729 | 1.36632 | 1.36532 | 1.36426 | 1.36322
x1 = 0.048 | 1.38012 | 1.37921 | 1.37827 | 1.37725 | 1.37623 | 1.37526 | 1.37424 | 1.37311 | 1.37204
x1 = 0.059 | 1.38919 | 1.38826 | 1.38724 | 1.3862 | 1.38512 | 1.38406 | 1.38298 | 1.38194 | 1.38083

Source: the NIST ThermoML archive (doi:10.1016/j.jct.2014.05.019)
